Measurements reported in US8715653B2, “Modulation of Rhamm (CD168) for selective adipose tissue development” (The Regents of the University of California, priority 2006, dated 2014).
“Also recorded” adds a separate entry of the source.

What was measured:
Rh-/- fibroblasts [1] = assay: Random motility of fibroblasts by time-lapse cinemicrography; format: cell-based, mouse
Method: (§1) Cell culture medium and culture conditions were described previously in Zhang, S., Chang, M. C., Zylka, D., Turley, S., Harrison, R., and Turley, E. A. 1998. The hyaluronan receptor RHAMM regulates extracellular-regulated kinase. J Biol Chem 273:11342-11348; and Tolg, C., et al. 2003. Genetic deletion of receptor for hyaluronan-mediated motility (Rhamm) attenuates the formation of aggressive fibromatosis (desmoid tumor). Oncogene 22:6873-6882. PDGF-BB (25 ng/ml), HA (500 ng/ml-1 mg/ml) or FCS (10%) were added to 24 hrs serum-starved, 50% sub-confluent fibroblasts on fibronectin (25 μg/ml)-coated dishes (Zhang, S., Chang, M. C., Zylka, D., Turley, S., Harrison, R., and Turley, E. A. 1998. The hyaluronan receptor RHAMM regulates extracellular-regulated kinase. J Biol Chem 273:11342-11348; Hall, C. L., Lange, L. A., Prober, D. A., Zhang, S., and Turley, E. A. 1996. pp60(c-src) is required for cell locomotion regulated by the hyaluronanreceptor RHAMM. Oncogene 13:2213-2224). […]
(§2) For experiments assessing the motogenic effects of HA and PDGF-BB, cells were plated onto fibronectin-coated tissue culture flasks at 50% sub-confluence overnight then serum-starved for 24 hrs. […] For quantifying the effect of FCS, fibroblasts were plated at 50% sub-confluence overnight onto tissue culture dishes that had been pre-coated with serum proteins. […]
(§3) Efficient repair of excisional wounds also depends upon motility speed in response to motogens present in the microenvironment (See Ridley, A. J., Schwartz, M. A., Burridge, K., Firtel, R. A., Ginsberg, M. H., Borisy, G., Parsons, J. T., and Horwitz, A. R. 2003. Cell migration: integrating signals from front to back. Science 302:1704-1709). The velocity of migration stimulated by HA (FIG. 6A) or FCS (FIGS. 9A, 9B) was assessed directly using time-lapse cinemicrography of cells cultured on fibronectin-coated 2D tissue culture surfaces (Hall, C. L., Lange, L. A., Prober, D. A., Zhang, S., and Turley, E. A. 1996. pp60(c-src) is required for cell locomotion regulated by the hyaluronanreceptor RHAMM. Oncogene 13:2213-2224). […]

Wt fibroblasts [2] = assay: as above; format: cell-based, mouse
Method: as §1, §2, §3

Rh-/- fibroblasts [3] = assay: Disassembly of phalloidin-positive actin stress fibers in response to PDGF-BB; format: cell-based, mouse
Excerpt: (§4) Tissue sections were stained for collagen (Masson's trichrome), α-smooth muscle actin, vimentin and tenascin following manufacturer's recommendations. Staining was quantified after counter-staining with Harris Hematoxylin (EM SCIENCE) and mounting in Cytoseal 60 (Tullberg-Reinert, H., and Jundt, G. 1999. In situ measurement of collagen synthesis by human bone cells with a sirius red-based colorimetric microassay: effects of transforming growth factor beta2 and ascorbic acid 2-phosphate. Histochem Cell Biol 112:271-276). Immunofluorescence of phospho-ERK1,2 was done as previously published (49). For the detection of droplets of neutral lipids, paraformaldehyde-fixed cells were stained with BODIPY 493/503 (25 μg/ml) (Gocze, P. M., and Freeman, D. A. 1994. Factors underlying the variability of lipid droplet fluorescence in MA-10 Leydig tumor cells. Cytometry 17:151-158). Actin stress fibers were detected with Oregon-green phalloidin.
(§5) Cell migration and invasion require the rapid assembly/disassembly of the actin cytoskeleton. Since intracellular Rhamm forms associate with the actin cytoskeleton and are required for v-src-mediated actin cytoskeleton disassembly, we compared the ability of Rh-/- fibroblasts with Rh^FL-rescued fibroblasts to disassemble phalloidin-positive actin stress fibers in response to PDGF-BB. […]

Wt fibroblasts [4] = assay: as above; format: cell-based, mouse
Excerpt: as §4, §5

[5] = tested on: rat excisional skin wounds; assay: Wound site (sub-cutaneous) adipogenesis in full thickness excisional wounds covered with collagen gel; format: in vivo; conditions: for adipogenesis within the wound site: rat excisional wounds, peptide in collagen gel, 14 days after wounding, histology
Method: FIG. 14. Effect of a hyaluronan binding peptide on wound site (sub-cutaneous) adipogenesis. A. Full thickness excisional wounds were placed on the flanks of male Fisher rats then these were covered with collagen gels (matrix) containing either no peptide (matrix), hyaluronan binding peptide (at 200, 20 and 2 ug/woundsite) or scrambled peptide (at 200 ug/woundsite). The wound sites were excised 14 days after wounding and processed for histology. Micrographs show Mason Trichrome stained tissue sections through the center of the wounds.
Wt and Rh-/- mice (3-18 month old) or male Sprague-Dawley rats were anaesthetized by Halothane inhalation. Two full thickness wounds were placed on denuded back skin using a 4 mm metal punch. In the case of the rat experiments, 200 ul of a vitrogen solution (type 1 collagen solution that gels at 35-37C) containing no peptide, 2-200 μg hyaluronan binding peptide or scrambled peptide was used to cover the wounds. Animals were housed in individual cages for the experimental period. Wounds were harvested at varying times using a 8 mm metal punch from similar locations on the backs of mice of the same gender and age. Harvested wounds were fixed overnight in 4% paraformaldehyde and paraffin embedded as described in Tolg, C., et al. 2003. Genetic deletion of receptor for hyaluronan-mediated motility (Rhamm) attenuates the formation of aggressive fibromatosis (desmoid tumor). Oncogene 22:6873-6882;. Numbered serial sections were cut perpendicular to the wound edge starting at the wound center. The first and last sections were stained with Masson's trichrome and non-stained sections were used for immunohistochemistry. To ensure that serial sections were cut starting at the wound center, wound samples were cut in half through the wound center prior to embedding

[6] = tested on: uninjured skin of male Fisher rats; assay: Subcutaneous fat after injection in collagen solution under uninjured skin; format: in vivo; conditions: uninjured rat skin, injected in type 1 collagen solution, harvested 4, 7 and 14 days after injection
Method: 0.2 , 2 and 20 ug of hyaluronan binding peptide or scrambled peptide were mixed in 1 ml of type 1 collagen solution, (3 mg/m1) and 0.25 ml of the solution was injected under the skin on the flanks of 3 month old male Fisher rats. Hair at the site of injection was removed prior to injection using Nair for marking purposes. Injection sites were harvested by skin punches at 4, 7 and 14 days after injection.

[7] = listed as Hyaluronan binding peptides

Compound	effect on motility in response to PDGF-BB (Rh-/- fibroblasts [1])	effect on motility in response to PDGF-BB (Wt fibroblasts [2]; Wt fibroblasts, PDGF-BB)	effect on random motility in the presence of FCS (Wt fibroblasts [2]; primary Wt fibroblasts, FCS)	effect on actin disassembly in response to PDGF-BB (Rh-/- fibroblasts [3])	effect on actin disassembly in response to PDGF-BB (Wt fibroblasts [4])	concentrations that increase subcutaneous adipogenesis ([5]; rat excisional skin wounds)	adipogenesis within the wound site [5]	adipogenesis within the wound site [5, 7]	subcutaneous fat / accumulation of adipocytes at injection site [6]	subcutaneous fat / accumulation of adipocytes at injection site [6, 7]
COc1cccc(-c2cc(=O)c3ccccc3o2)c1N [PD98059]	no effect	significantly inhibit	significantly reduce motility	no effect	significantly inhibit	–	–	–	–	–
STMMRSHKTRSHHV (Hyaluronan binding peptide.)	–	–	–	–	–	20-200 μg/wound site	filled with adipocytes	promoted adipogenesis; also recorded: increase subcutaneous adipogenesis	increases subcutaneous fat	promoted adipogenesis
